Test results from ChEMBL document CHEMBL3526141, “Characterization of human liver enzymes involved in the biotransformation of boceprevir, a hepatitis C virus protease inhibitor” (Drug Metab Dispos, 2011).

Columns and labels:
[1] = system: Liver cytosol; assay: Drug metabolism in human liver cytosol assessed as (1R,2S,5S)-N-((2S,3R)-4-amino-1-cyclobutyl-3-hydroxy-4-oxobutan-2-yl)-3-((S)-2-(3-tert-butylureido)-3,3-dimethylbutanoyl)-6,6-dimethyl-3-azabicyclo[3.1.0]hexane-2-carboxamide formation per mg protein after 60 mins by LC-MS/MS/FSA method; format: ADME, tissue-based; conditions: 1 h
[2] = system: Liver cytosol; assay: Ratio of Vmax to Km for drug metabolism in human liver cytosol assessed as (1R,2S,5S)-N-((2R,3R)-4-amino-1-cyclobutyl-3-hydroxy-4-oxobutan-2-yl)-3-((S)-2-(3-tert-butylureido)-3,3-dimethylbutanoyl)-6,6-dimethyl-3-azabicyclo[3.1.0]hexane-2-carboxamide formation per mg protein after 60 mins by LC-MS/MS/FSA method; format: ADME; conditions: 1 h
[3] = system: Liver cytosol; assay: Drug metabolism in human liver cytosol assessed as (1R,2S,5S)-N-((2R,3R)-4-amino-1-cyclobutyl-3-hydroxy-4-oxobutan-2-yl)-3-((S)-2-(3-tert-butylureido)-3,3-dimethylbutanoyl)-6,6-dimethyl-3-azabicyclo[3.1.0]hexane-2-carboxamide formation per mg protein after 60 mins by LC-MS/MS/FSA method; format: ADME, tissue-based; conditions: 1 h
[4] = system: Liver cytosol; assay: Drug metabolism in human liver cytosol assessed as (1R,2S,5S)-N-((2R,3R)-4-amino-1-cyclobutyl-3-hydroxy-4-oxobutan-2-yl)-3-((S)-2-(3-tert-butylureido)-3,3-dimethylbutanoyl)-6,6-dimethyl-3-azabicyclo[3.1.0]hexane-2-carboxamide formation after 60 mins by LC-MS/MS/FSA method; format: ADME, tissue-based; conditions: 1 h
[5] = system: Liver cytosol; assay: Drug metabolism in human liver cytosol assessed as (1R,2S,5S)-N-((2S,3R)-4-amino-1-cyclobutyl-3-hydroxy-4-oxobutan-2-yl)-3-((S)-2-(3-tert-butylureido)-3,3-dimethylbutanoyl)-6,6-dimethyl-3-azabicyclo[3.1.0]hexane-2-carboxamide formation after 60 mins by LC-MS/MS/FSA method; format: ADME, tissue-based; conditions: 1 h
[6] = system: Liver cytosol; assay: Ratio of Vmax to Km for drug metabolism in human liver cytosol assessed as (1R,2S,5S)-N-((2S,3R)-4-amino-1-cyclobutyl-3-hydroxy-4-oxobutan-2-yl)-3-((S)-2-(3-tert-butylureido)-3,3-dimethylbutanoyl)-6,6-dimethyl-3-azabicyclo[3.1.0]hexane-2-carboxamide formation per mg protein after 60 mins by LC-MS/MS/FSA method; format: ADME; conditions: 1 h
[7] = target: T1, Cytochrome P450 4F3 (Homo sapiens, UniProt Q08477); assay: Drug metabolism assessed as human CYP4F3A-mediated compound formation from 5 uM [14C]boceprevir after 120 mins by LC-MS/FSA method relative to total [14C]boceprevir; format: ADME; conditions: recombinant enzyme, 2 h
T1 sequence (Q08477 whole entry): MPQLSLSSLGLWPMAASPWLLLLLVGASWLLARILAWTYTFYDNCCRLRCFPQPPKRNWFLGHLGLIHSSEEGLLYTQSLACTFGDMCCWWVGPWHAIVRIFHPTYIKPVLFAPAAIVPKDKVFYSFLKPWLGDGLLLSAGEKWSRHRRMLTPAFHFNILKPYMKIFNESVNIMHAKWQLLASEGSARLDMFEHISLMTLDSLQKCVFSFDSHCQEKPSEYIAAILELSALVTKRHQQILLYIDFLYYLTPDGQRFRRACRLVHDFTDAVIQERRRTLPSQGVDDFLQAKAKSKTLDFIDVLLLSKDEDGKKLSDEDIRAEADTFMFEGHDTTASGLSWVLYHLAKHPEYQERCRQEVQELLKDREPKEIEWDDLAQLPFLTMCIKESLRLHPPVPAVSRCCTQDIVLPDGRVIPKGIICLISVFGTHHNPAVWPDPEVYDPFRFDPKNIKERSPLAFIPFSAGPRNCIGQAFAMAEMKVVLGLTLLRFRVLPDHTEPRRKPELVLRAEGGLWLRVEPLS

[8] = target: T2, Cytochrome P450 2B6 (Homo sapiens, UniProt P20813); assay: Drug metabolism assessed as human CYP2B6-mediated compound formation from 5 uM [14C]boceprevir after 120 mins by LC-MS/FSA method relative to total [14C]boceprevir; format: ADME; conditions: recombinant enzyme, 2 h
T2 sequence (P20813 whole entry): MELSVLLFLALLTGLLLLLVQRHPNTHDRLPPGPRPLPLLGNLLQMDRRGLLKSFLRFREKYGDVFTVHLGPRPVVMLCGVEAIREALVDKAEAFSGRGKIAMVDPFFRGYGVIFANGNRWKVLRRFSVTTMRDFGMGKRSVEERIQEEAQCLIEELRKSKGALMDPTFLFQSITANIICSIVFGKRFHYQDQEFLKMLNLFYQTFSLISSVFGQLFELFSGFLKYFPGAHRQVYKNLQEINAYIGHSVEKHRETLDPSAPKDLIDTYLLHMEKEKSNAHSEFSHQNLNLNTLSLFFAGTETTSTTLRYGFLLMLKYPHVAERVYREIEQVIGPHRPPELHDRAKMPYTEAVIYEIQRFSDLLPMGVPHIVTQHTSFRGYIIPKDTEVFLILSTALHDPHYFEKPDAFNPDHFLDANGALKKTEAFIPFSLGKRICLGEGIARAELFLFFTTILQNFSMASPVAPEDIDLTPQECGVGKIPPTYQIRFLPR

[9] = Retention time of the compound by LC-MS/MS method; format: physicochemical
[10] = target: T3, Cytochrome P450 3A5 (Homo sapiens, UniProt P20815); assay: Drug metabolism assessed as human CYP3A5-mediated compound formation from 5 uM [14C]boceprevir after 120 mins by LC-MS/FSA method relative to total [14C]boceprevir; format: ADME; conditions: recombinant enzyme, 2 h
[11] = target: T4, Cytochrome P450 3A4 (Homo sapiens, UniProt P08684); assay: Drug metabolism assessed as human CYP3A4-mediated compound formation from 20 uM [14C]boceprevir after 120 mins by LC-MS/FSA method relative to total [14C]boceprevir; format: ADME; conditions: recombinant enzyme, 2 h
[12] = system: Liver microsome; assay: Drug metabolism in human liver microsomes treated with 20 uM [14C]boceprevir assessed as compound formation by LC-MS/FSA method relative to total [14C]boceprevir; format: ADME
[13] = target: T5, Cytochrome P450 1A1 (Homo sapiens, UniProt P04798); assay: (§1) Drug metabolism assessed as human […]-mediated compound formation from 5 uM [14C]boceprevir after 120 mins by LC-MS/FSA method relative to total [14C]boceprevir; format: ADME; conditions: recombinant enzyme, 2 h
T5 sequence (P04798 whole entry): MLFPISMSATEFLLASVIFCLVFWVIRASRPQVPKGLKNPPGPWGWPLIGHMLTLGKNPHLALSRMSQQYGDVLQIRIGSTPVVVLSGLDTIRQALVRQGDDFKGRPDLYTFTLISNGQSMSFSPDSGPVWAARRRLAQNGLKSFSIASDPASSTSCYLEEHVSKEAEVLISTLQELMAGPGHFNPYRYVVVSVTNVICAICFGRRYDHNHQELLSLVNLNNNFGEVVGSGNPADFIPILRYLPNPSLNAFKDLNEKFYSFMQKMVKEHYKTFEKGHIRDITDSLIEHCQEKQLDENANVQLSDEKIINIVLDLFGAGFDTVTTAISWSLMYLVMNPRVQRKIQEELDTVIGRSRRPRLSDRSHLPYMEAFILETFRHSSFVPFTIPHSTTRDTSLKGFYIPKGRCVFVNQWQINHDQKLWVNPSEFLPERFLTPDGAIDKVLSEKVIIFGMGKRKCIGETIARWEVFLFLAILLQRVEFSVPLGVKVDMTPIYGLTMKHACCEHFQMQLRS

[14] = target: T6, Cytochrome P450 1A2 (Homo sapiens, UniProt P05177); assay: as §1; format: ADME; conditions: recombinant enzyme, 2 h
T6 sequence (P05177 whole entry): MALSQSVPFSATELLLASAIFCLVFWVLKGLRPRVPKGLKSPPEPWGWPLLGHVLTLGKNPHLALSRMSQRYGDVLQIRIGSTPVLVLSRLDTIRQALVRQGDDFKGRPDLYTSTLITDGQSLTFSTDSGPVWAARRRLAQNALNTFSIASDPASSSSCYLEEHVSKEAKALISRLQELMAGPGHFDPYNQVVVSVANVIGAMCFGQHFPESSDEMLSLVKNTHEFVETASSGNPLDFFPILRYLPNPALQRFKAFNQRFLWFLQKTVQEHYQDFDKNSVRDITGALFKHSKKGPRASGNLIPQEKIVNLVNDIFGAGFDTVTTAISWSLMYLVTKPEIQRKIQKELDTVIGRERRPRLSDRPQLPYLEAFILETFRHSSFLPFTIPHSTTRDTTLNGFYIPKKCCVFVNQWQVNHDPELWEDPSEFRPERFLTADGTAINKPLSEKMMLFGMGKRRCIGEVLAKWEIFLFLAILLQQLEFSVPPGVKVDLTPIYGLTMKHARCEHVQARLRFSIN

[15] = target: Cytochrome P450 2C19 (Homo sapiens, UniProt P33261); assay: Drug metabolism assessed as human CYP2C19-mediated compound formation from 5 uM [14C]boceprevir after 120 mins by LC-MS/FSA method relative to total [14C]boceprevir; format: ADME; conditions: recombinant enzyme, 2 h
[16] = target: T3, Cytochrome P450 3A5; assay: Drug metabolism assessed as human CYP3A5-mediated compound formation from 20 uM [14C]boceprevir after 120 mins by LC-MS/FSA method relative to total [14C]boceprevir; format: ADME; conditions: recombinant enzyme, 2 h
[17] = system: Liver microsome; assay: Drug metabolism in human liver microsomes treated with 5 uM [14C]boceprevir assessed as compound formation by LC-MS/FSA method relative to total [14C]boceprevir; format: ADME
[18] = target: T4, Cytochrome P450 3A4; assay: Drug metabolism assessed as human CYP3A4-mediated compound formation from 5 uM [14C]boceprevir after 120 mins by LC-MS/FSA method relative to total [14C]boceprevir; format: ADME; conditions: recombinant enzyme, 2 h
[19] = system: Plasma; assay: Drug metabolism in human plasma treated with [14C]boceprevir assessed as ratio of drug level by LC-MS/MS method relative to boceprevir; format: ADME, cell-free
[20] = target: Cytochrome P450 2D6 (Homo sapiens, UniProt P10635); assay: Drug metabolism assessed as human CYP2D6-mediated compound formation from 5 uM [14C]boceprevir after 120 mins by LC-MS/FSA method relative to total [14C]boceprevir; format: ADME; conditions: recombinant enzyme, 2 h
Sequence of Cytochrome P450 2D6 (P10635 whole entry): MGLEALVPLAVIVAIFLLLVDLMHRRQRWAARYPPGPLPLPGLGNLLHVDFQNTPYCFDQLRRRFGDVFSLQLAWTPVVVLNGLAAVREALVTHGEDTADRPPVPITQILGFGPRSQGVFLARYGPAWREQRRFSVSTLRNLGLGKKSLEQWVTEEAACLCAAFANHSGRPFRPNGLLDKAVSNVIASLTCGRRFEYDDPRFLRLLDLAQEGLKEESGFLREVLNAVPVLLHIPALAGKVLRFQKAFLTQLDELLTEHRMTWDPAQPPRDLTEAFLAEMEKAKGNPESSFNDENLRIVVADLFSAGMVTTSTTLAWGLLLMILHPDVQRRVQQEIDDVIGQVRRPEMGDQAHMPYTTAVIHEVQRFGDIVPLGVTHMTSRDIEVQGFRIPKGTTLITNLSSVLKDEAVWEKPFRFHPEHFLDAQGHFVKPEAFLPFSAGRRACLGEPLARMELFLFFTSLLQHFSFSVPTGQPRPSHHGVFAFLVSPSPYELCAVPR

T4 sequence (P08684 whole entry): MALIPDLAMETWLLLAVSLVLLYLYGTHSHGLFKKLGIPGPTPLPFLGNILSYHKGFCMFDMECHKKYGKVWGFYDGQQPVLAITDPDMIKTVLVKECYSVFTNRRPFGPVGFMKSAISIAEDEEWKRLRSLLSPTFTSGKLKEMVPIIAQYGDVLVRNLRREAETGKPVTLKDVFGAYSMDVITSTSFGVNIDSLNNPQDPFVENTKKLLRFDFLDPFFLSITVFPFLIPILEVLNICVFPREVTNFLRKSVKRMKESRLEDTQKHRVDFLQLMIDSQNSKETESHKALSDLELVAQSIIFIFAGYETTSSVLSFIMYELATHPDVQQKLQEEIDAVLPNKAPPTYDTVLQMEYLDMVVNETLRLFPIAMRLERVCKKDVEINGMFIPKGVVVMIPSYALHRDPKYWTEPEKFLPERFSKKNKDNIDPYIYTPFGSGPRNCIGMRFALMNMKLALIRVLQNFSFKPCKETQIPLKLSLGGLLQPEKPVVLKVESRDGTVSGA
T3 sequence (P20815 whole entry): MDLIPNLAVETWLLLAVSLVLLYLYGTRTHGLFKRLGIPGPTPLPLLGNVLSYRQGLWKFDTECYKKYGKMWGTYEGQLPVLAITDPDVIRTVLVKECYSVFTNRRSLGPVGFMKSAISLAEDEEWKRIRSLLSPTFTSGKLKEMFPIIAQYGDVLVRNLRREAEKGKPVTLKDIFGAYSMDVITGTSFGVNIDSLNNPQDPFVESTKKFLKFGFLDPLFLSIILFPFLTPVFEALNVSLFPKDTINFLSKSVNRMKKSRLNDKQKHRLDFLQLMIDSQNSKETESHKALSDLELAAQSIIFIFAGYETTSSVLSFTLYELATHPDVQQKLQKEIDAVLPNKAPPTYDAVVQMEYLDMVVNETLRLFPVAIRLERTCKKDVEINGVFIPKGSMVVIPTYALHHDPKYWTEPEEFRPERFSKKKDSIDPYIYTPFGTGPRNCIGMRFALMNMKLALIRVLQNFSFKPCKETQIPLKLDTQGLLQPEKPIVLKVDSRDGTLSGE
Sequence of Cytochrome P450 2C19 (P33261 whole entry): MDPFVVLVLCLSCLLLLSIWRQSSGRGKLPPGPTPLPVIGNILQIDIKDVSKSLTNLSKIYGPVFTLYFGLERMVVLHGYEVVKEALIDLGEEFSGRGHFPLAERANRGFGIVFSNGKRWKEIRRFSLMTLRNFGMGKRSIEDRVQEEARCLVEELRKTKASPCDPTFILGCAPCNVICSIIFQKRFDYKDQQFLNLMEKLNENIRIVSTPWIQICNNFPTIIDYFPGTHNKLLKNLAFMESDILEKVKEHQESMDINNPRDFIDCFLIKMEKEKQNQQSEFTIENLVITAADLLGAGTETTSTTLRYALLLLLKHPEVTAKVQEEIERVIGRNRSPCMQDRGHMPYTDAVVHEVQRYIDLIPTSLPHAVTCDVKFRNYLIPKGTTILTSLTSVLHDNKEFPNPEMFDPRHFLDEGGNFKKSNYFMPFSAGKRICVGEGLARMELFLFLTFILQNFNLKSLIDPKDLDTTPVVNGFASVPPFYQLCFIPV

| Vmax [1] [pmol/min] | Km [5] [µM] | Vmax/Km [6] [µL/min] | Compound recovery [7] [%] | Compound recovery [8] [%] | Retention_time [9] [min] | Compound recovery [10] [%] | Compound recovery [11] [%] | Compound recovery [12] [%] | Compound recovery [13] [%] | Compound recovery [14] [%] | Compound recovery [15] [%] | Compound recovery [16] [%] | Compound recovery [17] [%] | Compound recovery [19] | SMILES | also measured |
| --- | --- | --- | --- | --- | --- | --- | --- | --- | --- | --- | --- | --- | --- | --- | --- | --- |
| 28.6 | 13 | 2.2 |  |  |  |  |  |  |  |  |  |  |  |  | CC(C)(C)NC(=O)N[C@H](C(=O)N1C[C@H]2[C@@H]([C@H]1C(=O)NC(CC1CCC1)C(=O)C(N)=O)C2(C)C)C(C)(C)C (stereo in doubt) [BOCEPREVIR] | Vmax/Km [2]: 2.8 µL/min; Vmax [3]: 34.9 pmol/min; Km [4]: 12.5 µM |
|  |  |  | 0.24 | 0.22 | 16.6 | 2.22 | 0.58 | 1.1 | 0.33 | 0.29 | 0.29 | < 0.81 | 4.2 | <= 10% | CC(C)(C)NC(=O)N[C@H](C(=O)N1C[C@H]2[C@@H]([C@H]1C(=O)O)C2(C)C)C(C)(C)C | Compound recovery [18]: 4.57% |
| 0.361 | 35.5 | 10.2 | 57.31 | 56.54 | 42.8 | 0.98 | 37.98 | 26.12 | 55.46 | 59.66 | 60.3 | 38.77 | 0.21 | >= 50% | CC(C)(C)NC(=O)N[C@H](C(=O)N1C[C@H]2[C@@H]([C@H]1C(=O)N[C@@H](CC1CCC1)C(=O)C(N)=O)C2(C)C)C(C)(C)C [BOCEPREVIR] | Compound recovery [20]: 57.22%; Compound recovery ([18]; BLD = below limit of detection): BLD |
